Measured values: EP3199156A1, “USE OF GLYCINE TRANSPORTER 1 ANTAGONISTS AS CENTRAL NERVOUS ANALGESICS” (Heinrich Heine Universität Düsseldorf, priority 2016, dated 2017)
“Also recorded” adds a separate entry of the source.

Tests used:
[1] = tested on: Wistar Ratte; experiment: Mechanical allodynia (von Frey filament) after chronic constriction injury (CCI) of the left sciatic nerve, rat; format: in vivo; conditions: rats, day 10-12 after CCI
Experimental: (§1) Zum Beweis der Effektivität der Bitopertin-Applikation zur Behandlung neuropathischer Schmerzen wurde eine operative Ligatur des linken N. ischiadicus (Chronic Constriction Injury; CCI) der Wistar Ratte sowie C57BL/6-Maus induziert. Am Tag 10-12 nach CCI erhielten 2 Gruppen der Ratten randomisiert und verblindet eine einmalige orale Dosierungen von Bitopertin (0,3; 1 mg/kg), während die Kontrollgruppen Vehikel erhielten. Mechanische Allodynie wurde mittels eines halbautomatischen Frey Filaments (Ugo Basile) vor und 10-12 Tage nach CCI, sowie 1, 2, 4, 8 und 24 h nach Applikation von Bitopertin bzw. Vehikel überprüft. Zusätzlich wurde die Wirkung von Bitopertin 10 Tage nach CCI in Mäusen bei kontinuierlicher Langzeitapplikation mittels subkutan implantierter, osmotischer Mini-Infusionspumpen (2 mg/kg/Tag) über 27 Tage untersucht. Neuromotorische Wirkungen von Bitopertin in Mäusen wurden im Open-Field-Test 1 h nach Injektion bzw. bei kontinuierlicher Applikation nach 12 Tagen analysiert. Statistik: Alle Daten sind dargestellt als Mittelwerte ± Standardfehler; ANOVA und Bonferroni post hoc Test; Signifikanzniveau p<0,05.
In Figur 3 ist der Effekt des GlyT1-Inhibitors Bitopertin auf die mechanische Allodynie bei Nagern mit Neuropathie nach CCI dargestellt. Abbildung (A) zeigt den Effekt des GlyT1-Inhibitors Bitopertin auf die einmalige orale Applikation bei Ratten 0,3 mg/kg; n=9-11. […]

[2] = tested on: C57BL/6-Maus; experiment: Mechanical allodynia (von Frey filament, withdrawal threshold) after chronic constriction injury (CCI), mouse; format: in vivo
[3] = tested on: Mäusen; conditions: in vivo
Experimental: as §1

## C[C@H](Oc1ccc(S(C)(=O)=O)cc1C(=O)N1CCN(c2ncc(C(F)(F)F)cc2F)CC1)C(F)(F)F [Bitopertin]
[1]; single oral dose 0,3 mg/kg, effect two and four hours after administration, Figur 3 A
  durch CCI induzierte mechanische Allodynie: Reduktion der durch CCI induzierten mechanischen Allodynie; also recorded: signifikanten Verminderung von mechanischer Allodynie
[1]; single oral dose 1 mg/kg, compared with 0,3 mg/kg, Figur 3 B
  durch CCI induzierte mechanische Allodynie: vergleichbar ausprägten Effekten; also recorded: signifikanten Verminderung von mechanischer Allodynie
[2]; mice after CCI, continuous subcutaneous administration 2 mg/kg/Tag by osmotic mini-pump over 27 days, effect from 7 days after start until end of therapy, Figur 3 C, 2 mg/kg
  Schmerzempfindlichkeit der neuropathischen Extremität (mechanische Allodynie): verminderten Schmerzempfindlichkeit der neuropathischen Extremität; also recorded: signifikanten Verminderung von mechanischer Allodynie
[2]; mice, intraperitoneal 2 mg/kg versus Kochsalzlösung 0,9%, Figur 1
  Rückzugsschwellenwerte in Antwort auf eine mechanische Stimulation der neuropathischen Extremität: deutliche Anhebung der gemessenen Rückzugsschwellenwerte
[3]
  unerwünschte neuromotorische Wirkungen: nicht zu unerwünschten neuromotorischen Wirkungen
[3]; 2 mg/kg
  Aktivität (Open-field Test): keine Veränderungen der Aktivität
[3]; sc, 2 mg/kg
  Wegstrecken und Aufenthaltsdauern (Open-Field-Test): keine Unterschiede in Wegstrecken und Aufenthaltsdauern
